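Five compound concentrations were applied to cells in 96-well plates for 48 hours; endpoints were derived by simple linear interpolation of the resulting dose-response curve. GI50 = concentration required for 50% inhibition of growth.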 Active and inactive are the calls of the source. Cut-off read from the data, not from the text of the source: active = GI50 up to about 1.1 µM and inactive = higher.
What was measured:
Test in all cases: inhibition of tumour cell growth, NCI panel, 48 h
[1] = tested on: DU-145
[2] = tested on: UO-31
[3] = tested on: SK-MEL-5
[4] = tested on: MDA-N
[5] = tested on: LOX IMVI
[6] = tested on: OVCAR-5
[7] = tested on: CAKI-1
[8] = tested on: MDA-MB-435
[9] = tested on: CCRF-CEM
[10] = tested on: SN12C
[11] = tested on: HCT-15
[12] = tested on: SK-MEL-28
[13] = tested on: Malme-3M
[14] = tested on: A498
[15] = tested on: KM12
[16] = tested on: UACC-62
[17] = tested on: U-251
[18] = tested on: HT-29
[19] = tested on: NCI-H522
[20] = tested on: SF-539

| Compound | GI50 [1] | GI50 [2] | GI50 [3] | GI50 [4] | GI50 [5] | GI50 [6] | GI50 [7] | GI50 [8] | GI50 [9] | GI50 [10] | GI50 [11] | GI50 [12] | GI50 [13] | GI50 [14] | GI50 [15] | GI50 [16] | GI50 [17] | GI50 [18] | GI50 [19] | GI50 [20] |
| --- | --- | --- | --- | --- | --- | --- | --- | --- | --- | --- | --- | --- | --- | --- | --- | --- | --- | --- | --- | --- |
| COC(=O)/C=C/c1cc(OC)c2oc(-c3ccc(OC)c(OC)c3)c(C(=O)OC)c2c1 | > 100 µM (inactive) | > 100 µM (inactive) | > 100 µM (inactive) | > 100 µM (inactive) | > 100 µM (inactive) | > 100 µM (inactive) | > 100 µM (inactive) | > 100 µM (inactive) | > 100 µM (inactive) | > 100 µM (inactive) | > 100 µM | > 100 µM (inactive) | > 100 µM (inactive) | > 100 µM (inactive) | > 100 µM (inactive) | > 100 µM (inactive) | > 100 µM (inactive) | > 100 µM (inactive) |  |  |
| COc1cc(/C=C2\N=C(c3ccccc3)N(c3nc4ccccc4s3)C2=O)cc(OC)c1OC | 34.1 µM (inactive) | 58.5 µM (inactive) | 49.9 µM (inactive) | 15.3 µM (inactive) | 36.4 µM (inactive) | > 100 µM (inactive) | 70.6 µM (inactive) | 15.6 µM (inactive) |  | 26.5 µM (inactive) | 30.3 µM | 33 µM (inactive) |  | 52.7 µM (inactive) | 31.3 µM (inactive) |  | 26.1 µM (inactive) | 26.9 µM (inactive) | 13.4 µM (inactive) | 32.3 µM (inactive) |
| CC1=CC(=O)C[C@]2(C)[C@@H](O)CC(C(C)CO)C[C@@H]12 (stereo partly specified) | > 100 µM (inactive) | > 100 µM (inactive) | > 100 µM (inactive) | > 100 µM (inactive) | > 100 µM (inactive) | > 100 µM (inactive) | > 100 µM (inactive) | > 100 µM (inactive) |  | > 100 µM (inactive) | > 100 µM | > 100 µM (inactive) |  | > 100 µM (inactive) | > 100 µM (inactive) | > 100 µM (inactive) | > 100 µM (inactive) | > 100 µM (inactive) |  | > 100 µM (inactive) |
| CCN1CCCn2c(=O)[nH]c3cc(Br)cc1c32 | > 100 µM (inactive) | > 100 µM (inactive) | > 100 µM (inactive) | > 100 µM (inactive) | > 100 µM (inactive) | > 100 µM (inactive) | > 100 µM (inactive) | > 100 µM (inactive) | > 100 µM (inactive) | > 100 µM (inactive) | > 100 µM | > 100 µM (inactive) | > 100 µM (inactive) | 15.1 µM (inactive) | > 100 µM (inactive) | 69.8 µM (inactive) | 41.3 µM (inactive) | > 100 µM (inactive) |  | 23 µM (inactive) |
| COc1cccc(-c2cc(O)c3cc(N4CCOCC4)ccc3n2)c1 | 0.038 µM (active) | 0.0372 µM (active) | 0.0231 µM (active) | 0.0069 µM (active) | 0.049 µM (active) | 0.151 µM (active) | 0.0426 µM (active) | 0.00834 µM (active) | 0.0288 µM (active) | 0.0678 µM (active) | 0.0383 µM | 0.0748 µM (active) | 0.0131 µM (active) |  | 0.0424 µM (active) | 0.0258 µM (active) | 0.037 µM (active) |  | 0.0158 µM (active) | 0.0217 µM (active) |
| CCOC(=O)c1nnn(CCCCO)c1C(=O)OCC | > 100 µM (inactive) | > 100 µM (inactive) | > 100 µM (inactive) | > 100 µM (inactive) | > 100 µM (inactive) |  | > 100 µM (inactive) | > 100 µM (inactive) | > 100 µM (inactive) | > 100 µM (inactive) | > 100 µM | > 100 µM (inactive) | > 100 µM (inactive) |  | > 100 µM (inactive) | > 100 µM (inactive) | > 100 µM (inactive) | > 100 µM (inactive) |  | > 100 µM (inactive) |
| Cc1nn(C(=O)c2ccncc2)c2c1C(c1ccc(Cl)cc1)SC(=N)N2 (stereo unspecified) | > 10 µM (inactive) |  | > 10 µM (inactive) | > 10 µM (inactive) | > 10 µM (inactive) | > 10 µM (inactive) | > 10 µM (inactive) | > 10 µM (inactive) | > 10 µM (inactive) | > 10 µM (inactive) | > 10 µM | > 10 µM (inactive) | > 10 µM (inactive) |  | > 10 µM (inactive) | > 10 µM (inactive) |  | > 10 µM (inactive) |  | > 10 µM (inactive) |
| O=Cc1cc2c(cc1-c1c(C=O)ccc3c1OCO3)OCO2 | > 10 µM (inactive) |  | > 10 µM (inactive) | > 10 µM (inactive) | > 10 µM (inactive) |  | > 10 µM (inactive) | > 10 µM (inactive) | > 10 µM (inactive) | > 10 µM (inactive) | > 10 µM | > 10 µM (inactive) | > 10 µM (inactive) |  | > 10 µM (inactive) | > 10 µM (inactive) | > 10 µM (inactive) | > 10 µM (inactive) |  | > 10 µM (inactive) |
| O=C(O)c1ccc(Nc2cnc3cc(C(F)(F)F)ccc3n2)cc1 | 58.5 µM (inactive) | 43.2 µM (inactive) | 40.8 µM (inactive) | 53.8 µM (inactive) | 35.8 µM (inactive) | 34 µM (inactive) | > 100 µM (inactive) | 43.5 µM (inactive) | 57.9 µM (inactive) | 85.5 µM (inactive) | 25.6 µM | 42.4 µM (inactive) | 29.5 µM (inactive) |  | 37.1 µM (inactive) | 25.3 µM (inactive) | 48.2 µM (inactive) | 63.2 µM (inactive) | 25.8 µM (inactive) | 78 µM (inactive) |
| O=C1Nc2ccccc2/C1=C/c1ccccc1 | 13.8 µM (inactive) | 12.6 µM (inactive) | 13.3 µM (inactive) | 17.7 µM (inactive) | 13.2 µM (inactive) | 18.5 µM (inactive) | 29.2 µM (inactive) | 15.8 µM (inactive) | 17.8 µM (inactive) | 14.1 µM (inactive) | 14 µM | 20.8 µM (inactive) |  | 13.5 µM (inactive) | 15.3 µM (inactive) | 13.9 µM (inactive) | 15 µM (inactive) | 22.6 µM (inactive) | 15.8 µM (inactive) | 15.4 µM (inactive) |
| C[C@@H]1CC[C@H]2C(C)(C)[C@H]3C[C@@]12CC[C@@]3(C)O [CEDROL] | > 100 µM (inactive) | > 100 µM (inactive) | 42.7 µM (inactive) | > 100 µM (inactive) | > 100 µM (inactive) | > 100 µM (inactive) | > 100 µM (inactive) | 92.5 µM (inactive) | > 100 µM (inactive) | 26.7 µM (inactive) | 59.3 µM | 60 µM (inactive) |  | > 100 µM (inactive) | 48.1 µM (inactive) | > 100 µM (inactive) | > 10 µM (inactive) | 36 µM (inactive) | 45.9 µM (inactive) | > 100 µM (inactive) |
| O=C1CC(=O)NC(NN2C(=O)CSC2c2ccc(Cl)c(Cl)c2)=N1 (stereo unspecified) | > 100 µM (inactive) | > 100 µM (inactive) | > 100 µM (inactive) | 82.8 µM (inactive) |  | > 100 µM (inactive) | > 100 µM (inactive) | 65 µM (inactive) | 19.5 µM (inactive) | > 100 µM (inactive) | > 100 µM | > 100 µM (inactive) | > 100 µM (inactive) | > 100 µM (inactive) | 42.7 µM (inactive) | 42.6 µM (inactive) | > 100 µM (inactive) | 76.2 µM (inactive) | 71.8 µM (inactive) | > 100 µM (inactive) |
| COCn1cc(C2=C(C)C(=O)C(C)=C(C)C2=O)cn1 | > 100 µM (inactive) | 57.5 µM (inactive) | 38.1 µM (inactive) | 48.6 µM (inactive) | > 10 µM (inactive) | > 100 µM (inactive) | > 100 µM (inactive) | 19.6 µM (inactive) | 21.9 µM (inactive) | > 100 µM (inactive) | > 100 µM | > 100 µM (inactive) | 99.5 µM (inactive) | > 100 µM (inactive) | > 100 µM (inactive) | > 100 µM (inactive) |  | > 100 µM (inactive) |  | > 100 µM (inactive) |
| OCCCc1ccc2c(c1)[C@H](CO)[C@@H](c1ccc(O)cc1)O2 | > 100 µM (inactive) | 68.2 µM (inactive) | 18.6 µM (inactive) | 87.7 µM (inactive) | > 100 µM (inactive) | > 100 µM (inactive) |  | 69.3 µM (inactive) | 76 µM (inactive) | > 100 µM (inactive) | > 100 µM | 36.4 µM (inactive) | 13.8 µM (inactive) | > 100 µM (inactive) | 82.4 µM (inactive) | 51.9 µM (inactive) | > 100 µM (inactive) | > 100 µM (inactive) | > 100 µM (inactive) | > 100 µM (inactive) |
| O=C(O)C(C(C(=O)O)P(=O)(O)O)P(=O)(O)O (stereo unspecified) | > 100 µM (inactive) | > 100 µM (inactive) | > 100 µM (inactive) | > 100 µM (inactive) | > 100 µM (inactive) | > 100 µM (inactive) |  | > 100 µM (inactive) | > 100 µM (inactive) |  | > 100 µM | > 100 µM (inactive) | > 100 µM (inactive) | > 100 µM (inactive) | > 100 µM (inactive) | > 100 µM (inactive) | > 100 µM (inactive) | > 100 µM (inactive) |  | > 100 µM (inactive) |
| Cc1c(NC(=O)CSC(=S)N2CCN(Cc3ccccc3)CC2)c(=O)n(-c2ccccc2)n1C | > 100 µM (inactive) | > 100 µM (inactive) | > 100 µM (inactive) | > 100 µM (inactive) | > 100 µM (inactive) | > 100 µM (inactive) | > 100 µM (inactive) | > 100 µM (inactive) | > 100 µM (inactive) | > 100 µM (inactive) | > 100 µM | > 100 µM (inactive) | > 100 µM (inactive) |  | > 100 µM (inactive) |  | > 100 µM (inactive) | > 100 µM (inactive) | > 100 µM (inactive) | > 100 µM (inactive) |
